Data from ChEMBL document CHEMBL5236544, “Furazans in Medicinal Chemistry” (J Med Chem, 2021).
In brackets after ≈: the same amount, converted by molar mass.

How the values were obtained:
[1] = biological target: Ribosomal protein S6 kinase beta-1 (Homo sapiens, UniProt P23443); experiment: Inhibition of p70S6 (unknown origin) […]
Streptococcus pneumoniae [2] = experiment: Antibiofilm activity against Streptococcus pneumoniae reduction in biofilm formation in the presence of tobramycin at 13 uM relative to control; type: functional; set-up: scale not given: the % may be the effect or the level left
Staphylococcus aureus [3] = experiment: Antibacterial activity against Staphylococcus aureus assessed as reduction in bacterial growth by broth microdilution method; type: functional
Staphylococcus aureus [4] = experiment: Antibiofilm activity against Staphylococcus aureus reduction in biofilm formation at 63 uM relative to control; type: functional; set-up: scale not given: the % may be the effect or the level left
Streptococcus pneumoniae [5] = experiment: Antibacterial activity against Streptococcus pneumoniae assessed as reduction in bacterial growth incubated for 1 hrs in presence of tobramycin by colony-counting method; type: functional
Staphylococcus aureus [6] = experiment: Antibacterial activity against Staphylococcus aureus assessed as reduction in bacterial growth incubated for 1 hrs in presence of azithromycin by colony-counting method; type: functional
Streptococcus pneumoniae [7] = experiment: Antibacterial activity against Streptococcus pneumoniae assessed as reduction in bacterial growth by broth microdilution method; type: functional
Staphylococcus aureus [8] = experiment: Antibiofilm activity against Staphylococcus aureus reduction in biofilm formation in the presence of azithromycin at 63 uM relative to control; type: functional; set-up: scale not given: the % may be the effect or the level left
Streptococcus pneumoniae [9] = experiment: Antibiofilm activity against Streptococcus pneumoniae reduction in biofilm formation at 63 uM relative to control; type: functional; set-up: scale not given: the % may be the effect or the level left
Helicobacter pylori [10] = experiment: Antibacterial activity against Helicobacter pylori SS1 assessed as reduction in bacterial growth in the presence of metronidazole-sensitive by broth microdilution method; type: functional
Mus musculus = experiment: In vivo antibacterial activity against Helicobacter pylori SS1 infected mouse model assessed as reduction in infection at 200 mg/kg, po administered for 8 days relative to control; type: functional; set-up: scale not given: the % may be the effect or the level left; details: time 8 day
Helicobacter pylori [11] = experiment: Antibacterial activity against Helicobacter pylori SS1 assessed as reduction in bacterial growth incubated for 1 hrs in presence of metronidazole by colony-counting method; type: functional
Helicobacter pylori [12] = experiment: Antibacterial activity against Helicobacter pylori NCTC11637 assessed as reduction in bacterial growth incubated for 1 hrs in presence of metronidazole-resistant by colony-counting method; type: functional
Helicobacter pylori [13] = experiment: Antibacterial activity against Helicobacter pylori NCTC11637 assessed as reduction in bacterial growth incubated for 1 hrs in presence of metronidazole by colony-counting method; type: functional
[14] = Half life in mouse at 10 mg/kg, po; type: ADME, organism-based; details: in vivo
[15] = Binding affinity to Plasmodium falciparum LDH assessed as inhibitory constant
KB = experiment: Antitumor activity against human KB cells assessed as reduction in cell viability; type: functional, cell-based
Lactate dehydrogenase = Lactate dehydrogenase (Plasmodium falciparum, UniProt Q0PJ46); experiment: Inhibition of recombinant Plasmodium falciparum LDH
Plasmodium falciparum [16] = experiment: Antimalarial activity against Plasmodium falciparum assessed as parasitic reduction at 100 mg/kg relative to control; type: functional; set-up: scale not given: the % may be the effect or the level left
HeLa [17] = experiment: Antitumor activity against human HeLa cells assessed as reduction in cell viability; type: functional, cell-based
Plasmodium falciparum [18] = experiment: Antimalarial activity against drug sensitive Plasmodium falciparum 3D7; type: functional, organism-based
[19] = Half life in mouse at 10 mg/kg, ip; type: ADME, organism-based; details: in vivo
Plasmodium falciparum [20] = experiment: Antimalarial activity against drug resistant Plasmodium falciparum KI; type: functional, organism-based
[21] = Cmax in mouse at 100 mg/kg, po; type: ADME, organism-based; set-up: dose 100 mg/kg, route po; details: in vivo
Plasmodium falciparum [22] = experiment: Antimalarial activity against Plasmodium falciparum assessed as parasitic reduction at 10 mg/kg of chloroquine relative to control; type: functional; set-up: scale not given: the % may be the effect or the level left
[23] = Inhibition of human recombinant LDH
[24] = Cmax in mouse at 100 mg/kg, ip; type: ADME, organism-based; set-up: dose 100 mg/kg, route ip; details: in vivo
[25] = biological target: Cyclin-dependent kinase 2 (Homo sapiens, UniProt P24941); experiment: Inhibition of CDK-2 (unknown origin)
CHO = experiment: Antiproliferative activity against CHO cells assessed as reduction in cell proliferation by MTT assay; type: functional, cell-based; details: Cricetulus griseus
SK-OV-3 [26] = experiment: Antitumor activity against human SK-OV-3 cells xenografted in mouse model assessed as reduction in tumor growth at 100 mg/kg bid relative to control; type: functional; set-up: scale not given: the % may be the effect or the level left
SK-OV-3 [27] = experiment: Antiproliferative activity against human SK-OV-3 cells assessed as inhibition of cell proliferation by MTT assay; type: functional, cell-based
[28] = Half life in human liver microsomes; type: ADME
LNCaP = experiment: Antitumor activity against human LNCaP cells in xenografted mouse model assessed as reduction in tumor growth at 30 mg/kg, ip administered daily for 21 days relative to control; type: functional; set-up: scale not given: the % may be the effect or the level left; details: time 21 day
HCC1954 = experiment: Antitumor activity against human HCC1954 cells in xenografted mouse model assessed as reduction in tumor growth at 30 mg/kg, ip administered daily for 21 days relative to control; type: functional; set-up: scale not given: the % may be the effect or the level left; details: time 21 day
MDA-MB-453 = experiment: Antitumor activity against human MDA-MB-453 cells in xenografted mouse model assessed as reduction in tumor growth at 30 mg/kg, ip administered daily for 21 days relative to control; type: functional; set-up: scale not given: the % may be the effect or the level left; details: time 21 day
PANC-1 = experiment: Antitumor activity against human PANC-1 cells in xenografted mouse model assessed as reduction in tumor growth at 30 mg/kg, ip administered daily for 21 days relative to control; type: functional; set-up: scale not given: the % may be the effect or the level left; details: time 21 day
SK-OV-3 [29] = experiment: Antitumor activity against human SK-OV-3 cells in xenografted mouse model assessed as reduction in tumor growth at 30 mg/kg, ip administered daily for 21 days relative to control; type: functional; set-up: scale not given: the % may be the effect or the level left; details: time 21 day
BT-474 = experiment: Antitumor activity against human BT-474 cells in xenografted mouse model assessed as reduction in tumor growth at 30 mg/kg, ip administered daily for 21 days relative to control; type: functional; set-up: scale not given: the % may be the effect or the level left; details: time 21 day
[30] = biological target: Proto-oncogene tyrosine-protein kinase Src (Homo sapiens, UniProt P12931); experiment: Inhibition SRC (unknown origin)
[31] = biological target: Epidermal growth factor receptor (Homo sapiens, UniProt P00533); experiment: Inhibition of EGF-R (unknown origin)
[32] = biological target: Insulin-like growth factor 1 receptor (Homo sapiens, UniProt P08069); experiment: Inhibition of IGF-1R (unknown origin)
Aurora kinase B = Aurora kinase B (Homo sapiens, UniProt Q96GD4); experiment: Inhibition of Aurora B (unknown origin)
[33] = biological target: Vascular endothelial growth factor receptor 2 (Homo sapiens, UniProt P35968); experiment: Inhibition of VEGF-R2 (unknown origin)
MCF7 = experiment: cells; type: functional, cell-based; details: Homo sapiens, MCF7, 24 h
Description: Antiproliferative activity against human MCF7 assessed as reduction in cell viability incubated for 24 hrs by MTT assay

physchem [34] = details: PBS, pH 7.4
Description: Solubility of the compound in PBS at pH 7.4

physchem [35] = details: octanol/water
Description: Lipophilicity, log P of the compound

in vitro = details: human, liver microsomes, po, 10 mg/kg
Description: Half life in human liver microsomes at 10 mg/kg, po

HeLa [36] = experiment: Antiproliferative activity against human HeLa cells assessed as cell growth inhibition; type: functional, cell-based

Chain of Ribosomal protein S6 kinase beta-1 (P23443 whole entry): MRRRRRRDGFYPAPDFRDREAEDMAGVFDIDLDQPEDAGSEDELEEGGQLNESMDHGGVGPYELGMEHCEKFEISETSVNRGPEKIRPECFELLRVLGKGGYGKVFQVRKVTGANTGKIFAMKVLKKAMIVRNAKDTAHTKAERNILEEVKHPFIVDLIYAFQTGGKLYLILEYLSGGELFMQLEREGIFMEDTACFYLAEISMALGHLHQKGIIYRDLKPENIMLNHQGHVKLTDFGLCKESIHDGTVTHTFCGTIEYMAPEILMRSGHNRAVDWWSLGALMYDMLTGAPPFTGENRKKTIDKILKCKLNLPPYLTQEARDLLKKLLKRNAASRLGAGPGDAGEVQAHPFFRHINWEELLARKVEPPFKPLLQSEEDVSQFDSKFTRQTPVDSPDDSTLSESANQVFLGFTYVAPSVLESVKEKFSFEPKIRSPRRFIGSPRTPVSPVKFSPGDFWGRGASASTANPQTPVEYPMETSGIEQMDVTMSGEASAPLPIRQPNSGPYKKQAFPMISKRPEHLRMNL
Chain of Lactate dehydrogenase (Q0PJ46 whole entry): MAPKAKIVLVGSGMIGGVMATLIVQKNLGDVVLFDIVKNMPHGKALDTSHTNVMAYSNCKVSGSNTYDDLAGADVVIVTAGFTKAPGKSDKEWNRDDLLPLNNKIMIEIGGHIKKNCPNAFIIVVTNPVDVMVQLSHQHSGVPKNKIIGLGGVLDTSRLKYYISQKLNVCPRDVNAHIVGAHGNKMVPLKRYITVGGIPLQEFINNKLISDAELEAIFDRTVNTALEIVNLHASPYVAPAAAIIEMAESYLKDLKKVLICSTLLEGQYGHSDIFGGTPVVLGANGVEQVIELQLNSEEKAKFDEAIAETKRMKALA
Chain of Vascular endothelial growth factor receptor 2 (P35968 whole entry): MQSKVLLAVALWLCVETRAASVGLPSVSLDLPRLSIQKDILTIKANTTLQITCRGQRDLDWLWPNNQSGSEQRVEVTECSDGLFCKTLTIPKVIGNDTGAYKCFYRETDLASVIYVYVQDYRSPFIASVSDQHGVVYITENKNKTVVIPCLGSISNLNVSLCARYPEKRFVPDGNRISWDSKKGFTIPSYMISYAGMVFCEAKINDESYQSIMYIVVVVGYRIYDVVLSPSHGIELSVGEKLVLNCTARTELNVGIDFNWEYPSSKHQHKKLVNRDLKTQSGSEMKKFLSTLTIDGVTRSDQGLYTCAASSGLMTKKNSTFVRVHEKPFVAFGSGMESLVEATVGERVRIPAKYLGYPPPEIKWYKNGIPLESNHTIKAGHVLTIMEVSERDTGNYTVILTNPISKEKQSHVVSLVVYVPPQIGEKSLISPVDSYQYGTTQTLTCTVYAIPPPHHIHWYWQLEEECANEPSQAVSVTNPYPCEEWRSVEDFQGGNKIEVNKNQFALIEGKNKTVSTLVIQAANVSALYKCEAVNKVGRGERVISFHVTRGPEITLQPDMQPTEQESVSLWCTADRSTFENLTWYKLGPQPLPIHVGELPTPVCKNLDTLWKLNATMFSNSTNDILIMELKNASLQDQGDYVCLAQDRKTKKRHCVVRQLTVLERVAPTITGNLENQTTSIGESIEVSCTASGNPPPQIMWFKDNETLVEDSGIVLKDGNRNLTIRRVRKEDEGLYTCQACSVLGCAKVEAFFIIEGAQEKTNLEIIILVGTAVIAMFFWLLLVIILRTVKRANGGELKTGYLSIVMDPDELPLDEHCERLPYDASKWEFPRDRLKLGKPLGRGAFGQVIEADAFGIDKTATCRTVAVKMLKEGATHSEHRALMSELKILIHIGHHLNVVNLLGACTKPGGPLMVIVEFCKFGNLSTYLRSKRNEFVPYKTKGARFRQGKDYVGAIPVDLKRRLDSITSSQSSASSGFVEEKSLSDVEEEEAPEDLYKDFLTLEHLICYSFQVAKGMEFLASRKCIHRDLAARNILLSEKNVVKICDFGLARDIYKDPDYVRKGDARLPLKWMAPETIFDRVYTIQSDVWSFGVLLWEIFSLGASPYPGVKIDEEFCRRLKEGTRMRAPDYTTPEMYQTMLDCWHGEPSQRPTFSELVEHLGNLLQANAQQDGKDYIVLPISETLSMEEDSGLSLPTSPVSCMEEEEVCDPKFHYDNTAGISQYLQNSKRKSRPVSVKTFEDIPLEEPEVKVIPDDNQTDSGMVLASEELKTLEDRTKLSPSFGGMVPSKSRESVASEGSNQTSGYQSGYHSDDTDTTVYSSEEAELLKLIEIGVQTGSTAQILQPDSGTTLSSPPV
Chain of Proto-oncogene tyrosine-protein kinase Src (P12931 2-536 limits assumed): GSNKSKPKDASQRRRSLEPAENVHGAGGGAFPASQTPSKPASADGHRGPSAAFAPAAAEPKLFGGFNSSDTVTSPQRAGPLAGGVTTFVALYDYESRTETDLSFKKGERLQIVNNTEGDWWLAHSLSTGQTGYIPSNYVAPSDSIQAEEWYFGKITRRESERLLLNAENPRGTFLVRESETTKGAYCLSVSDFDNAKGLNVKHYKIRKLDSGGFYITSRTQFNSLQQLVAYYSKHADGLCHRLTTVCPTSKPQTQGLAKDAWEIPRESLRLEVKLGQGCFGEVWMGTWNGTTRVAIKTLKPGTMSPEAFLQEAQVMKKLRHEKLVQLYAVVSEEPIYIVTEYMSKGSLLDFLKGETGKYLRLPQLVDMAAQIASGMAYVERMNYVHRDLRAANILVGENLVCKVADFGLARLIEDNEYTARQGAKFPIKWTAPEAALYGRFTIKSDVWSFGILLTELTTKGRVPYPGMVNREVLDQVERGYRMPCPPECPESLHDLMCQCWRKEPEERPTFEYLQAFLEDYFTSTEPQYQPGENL
Chain of Epidermal growth factor receptor (P00533 whole entry): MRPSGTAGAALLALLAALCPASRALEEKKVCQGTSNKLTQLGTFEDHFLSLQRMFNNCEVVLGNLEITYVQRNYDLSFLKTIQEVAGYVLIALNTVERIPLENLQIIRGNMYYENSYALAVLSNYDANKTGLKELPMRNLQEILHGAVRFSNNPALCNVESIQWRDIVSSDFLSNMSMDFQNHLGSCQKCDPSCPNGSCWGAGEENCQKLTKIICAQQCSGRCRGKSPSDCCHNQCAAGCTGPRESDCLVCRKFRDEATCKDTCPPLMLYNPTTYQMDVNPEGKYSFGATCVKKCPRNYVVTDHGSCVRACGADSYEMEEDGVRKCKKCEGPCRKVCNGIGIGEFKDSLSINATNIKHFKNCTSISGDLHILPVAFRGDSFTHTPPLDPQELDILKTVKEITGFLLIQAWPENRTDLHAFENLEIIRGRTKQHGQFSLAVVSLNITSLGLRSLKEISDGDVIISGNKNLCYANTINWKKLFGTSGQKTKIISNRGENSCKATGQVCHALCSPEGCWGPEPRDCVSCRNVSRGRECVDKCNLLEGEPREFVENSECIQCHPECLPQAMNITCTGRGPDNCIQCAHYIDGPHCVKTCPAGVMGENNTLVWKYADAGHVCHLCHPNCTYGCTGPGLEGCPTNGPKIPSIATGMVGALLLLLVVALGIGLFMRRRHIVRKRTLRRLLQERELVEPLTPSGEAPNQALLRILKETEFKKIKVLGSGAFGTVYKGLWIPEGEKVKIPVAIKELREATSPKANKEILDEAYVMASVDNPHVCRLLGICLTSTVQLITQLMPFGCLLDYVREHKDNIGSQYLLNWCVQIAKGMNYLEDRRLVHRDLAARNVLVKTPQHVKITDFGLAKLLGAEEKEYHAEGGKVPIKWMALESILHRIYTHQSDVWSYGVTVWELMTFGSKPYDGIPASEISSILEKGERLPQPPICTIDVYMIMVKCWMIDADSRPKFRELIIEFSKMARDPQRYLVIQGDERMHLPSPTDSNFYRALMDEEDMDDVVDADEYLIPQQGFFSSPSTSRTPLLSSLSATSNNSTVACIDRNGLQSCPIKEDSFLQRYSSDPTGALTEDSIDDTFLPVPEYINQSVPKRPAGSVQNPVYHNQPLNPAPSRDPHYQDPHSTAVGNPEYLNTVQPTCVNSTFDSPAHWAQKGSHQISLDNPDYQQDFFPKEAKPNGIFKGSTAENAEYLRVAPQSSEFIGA
Chain of Aurora kinase B (Q96GD4 whole entry): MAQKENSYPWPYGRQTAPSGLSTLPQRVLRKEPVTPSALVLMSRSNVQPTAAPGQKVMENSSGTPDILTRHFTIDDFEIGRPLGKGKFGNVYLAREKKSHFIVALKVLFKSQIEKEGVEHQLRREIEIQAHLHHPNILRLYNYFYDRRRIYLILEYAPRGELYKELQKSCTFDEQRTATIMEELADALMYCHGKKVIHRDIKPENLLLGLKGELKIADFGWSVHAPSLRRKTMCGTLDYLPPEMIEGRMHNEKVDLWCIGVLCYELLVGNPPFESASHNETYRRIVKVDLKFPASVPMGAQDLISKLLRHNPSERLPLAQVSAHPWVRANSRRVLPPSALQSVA

Work on `Cc1ccc2c(c1)nc(-c1nonc1N)n2C1CCC1` yielded an IC50 [1] of 19 nM.

`N=C(N/C(=N/O)c1nonc1N)c1ccccc1N` gave an Activity (Streptococcus pneumoniae [2]) of 50%, an MIC (Staphylococcus aureus [3]) of 250 µM (≈ 65.3 µg/mL) and an Activity (Staphylococcus aureus [4]) of 77%. It also gave an MIC (Streptococcus pneumoniae [5]) of 50 µM, an MIC (Staphylococcus aureus [6]) of 200 µM and an MIC (Streptococcus pneumoniae [7]) of 250 µM (≈ 65.3 µg/mL). It also gave an Activity (Staphylococcus aureus [8]) of 48% and an Activity (Streptococcus pneumoniae [9]) of 73%.

`COc1ccc(C[S+]([O-])c2ccc(N)c3nonc23)cc1` (centres undefined) showed an MIC (Helicobacter pylori [10]) of 105 µM, an Activity (Mus musculus) of 60% and an MIC (Helicobacter pylori [11]) of 2.9 µM. The MIC (Helicobacter pylori [12]) was 53 µM and the MIC (Helicobacter pylori [13]) was 187 µM.

`O=C(O)c1nonc1O` showed a half-life [14] of 78 min, a Ki [15] of 210 nM and an EC50 (KB) of 640 µM. The IC50 (Lactate dehydrogenase) was 650 nM, the Activity (Plasmodium falciparum [16]) was 41% and the EC50 (HeLa [17]) was 1.3 mM. The EC50 (Plasmodium falciparum [18]) was 22.5 µM, the EC90 (Plasmodium falciparum [18]) was 75.9 µM and the half-life [19] was 78 min. It also gave an EC50 (Plasmodium falciparum [20]) of 18.6 µM, a Cmax [21] of 138 µM and an Activity (Plasmodium falciparum [22]) of 100%. For the same molecule, the IC50 [23] was 72.1 µM and the Cmax [24] was 196 µM.

`Nc1nonc1-n1nnc(-c2nnc(-c3ccncc3)[nH]2)c1CN1CCCCC1` showed an IC50 [25] greater than 250 µM and an EC50 (CHO) of 1850 nM.

`NS(=O)(=O)CC(=O)NCCSc1nonc1/C(=N/O)Nc1cccc(Cl)c1` gave an Activity (SK-OV-3 [26]) of 50%, an EC50 (SK-OV-3 [27]) of 10 nM and a half-life [28] greater than 180 min.

Work on `CCn1c(-c2nonc2N)nc2c(C#CC(C)(C)O)ncc(OC[C@H]3CCCNC3)c21` [GSK-690693] yielded an Activity (LNCaP) of 50%, an Activity (HCC1954) of 65% and an Activity (MDA-MB-453) of 27%. The Activity (PANC-1) was 5%, the Activity (SK-OV-3 [29]) was 58% and the Activity (BT-474) was 46%.

`O=C(O)c1cc(-c2ccc(/C=N/Nc3nc4nonc4nc3Nc3ccccc3)o2)ccc1Cl` gave an IC50 [30] of less than 1000 nM, an IC50 [31] of less than 1000 nM and an IC50 [32] of less than 1000 nM. For the same molecule, the IC50 (Aurora kinase B) was less than 1000 nM and the IC50 [33] was less than 1000 nM.

With `Oc1nc2nonc2nc1Nc1ccc(OC(F)(F)F)cc1` the EC50 (MCF7) was 4.3 µM, the solubility (physchem [34]) was greater than 500 µM and the logP (physchem [35]) was 5.2. It also gave a half-life (in vitro) of 342 min.

Work on `Cc1ccc(/C=N/NC(=O)c2nnn(-c3nonc3N)c2-c2ccc([N+](=O)[O-])cc2)cc1` yielded an EC50 (HeLa [36]) of 15.1 µM.
